Assay results published in patent US8906925B2, “Pyrido[4,3-B]indoles containing rigid moieties” (Medivation Technologies, Inc., priority 2008, dated 2014).
Read-outs that look alike come from different tables or passages of the source.

What was measured:
histamine receptor H1 = histamine receptor H1 (Homo sapiens, UniProt P35367); experiment: Histamine H1 radioligand binding ([3H]Pyrilamine); details: for inhibition at 1 µM: read-out: Histamine Binding (1 μM) H1, percent inhibition of specific binding, 1 μM
histamine receptor H1, sequence (P35367 whole entry): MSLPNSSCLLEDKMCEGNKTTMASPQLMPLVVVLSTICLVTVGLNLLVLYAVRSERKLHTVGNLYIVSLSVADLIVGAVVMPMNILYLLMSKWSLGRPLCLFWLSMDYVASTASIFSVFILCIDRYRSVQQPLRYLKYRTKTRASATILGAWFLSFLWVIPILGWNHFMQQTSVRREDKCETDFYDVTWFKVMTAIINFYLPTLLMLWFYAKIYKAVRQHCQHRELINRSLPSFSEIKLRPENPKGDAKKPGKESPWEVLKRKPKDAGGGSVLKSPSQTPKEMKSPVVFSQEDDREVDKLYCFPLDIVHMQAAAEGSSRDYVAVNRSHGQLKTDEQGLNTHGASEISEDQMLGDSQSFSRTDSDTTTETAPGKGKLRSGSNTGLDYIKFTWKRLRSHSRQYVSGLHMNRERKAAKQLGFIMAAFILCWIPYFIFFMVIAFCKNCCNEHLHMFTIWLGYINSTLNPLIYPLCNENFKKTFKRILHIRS
How it was run: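 Values are percent inhibition of specific [3H]pyrilamine (1.2 nM) binding with compounds at ≤1 μM (1% DMSO vehicle); 180 min incubation at 25 °C, pH 7.4 Tris buffer, on CHO-expressed human H1 receptor; 1 μM pyrilamine defined nonspecific binding, bound ligand counted after filtration.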

[1] = target: human recombinant serotonin (5-Hydroxytryptamine) 5-HT7 receptor (Homo sapiens, UniProt P34969); experiment: Serotonin 5-HT7 radioligand binding ([3H]LSD); details: compound at 0.1 μM; read-out: Inhibition of ligand binding, Serotonin 5-HT7 (percent inhibition of specific binding)
human recombinant serotonin (5-Hydroxytryptamine) 5-HT7 receptor, sequence (P34969 whole entry): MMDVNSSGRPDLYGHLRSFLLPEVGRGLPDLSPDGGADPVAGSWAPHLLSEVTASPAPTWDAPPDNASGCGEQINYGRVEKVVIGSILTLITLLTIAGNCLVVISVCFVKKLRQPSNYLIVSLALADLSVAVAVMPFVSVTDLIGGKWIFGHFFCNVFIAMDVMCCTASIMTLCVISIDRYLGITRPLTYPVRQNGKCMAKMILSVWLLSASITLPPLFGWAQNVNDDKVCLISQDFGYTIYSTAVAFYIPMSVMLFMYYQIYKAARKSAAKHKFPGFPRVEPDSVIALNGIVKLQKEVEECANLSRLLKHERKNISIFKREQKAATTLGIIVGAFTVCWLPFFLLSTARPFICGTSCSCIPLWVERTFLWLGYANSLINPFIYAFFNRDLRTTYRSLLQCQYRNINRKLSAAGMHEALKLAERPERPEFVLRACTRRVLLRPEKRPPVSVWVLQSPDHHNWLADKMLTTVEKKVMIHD
Text: Receptor proteins were filtered and washed, the filters were then counted to determine [^3H]LSD specifically bound.

[2] = target: T1, human recombinant serotonin (5-Hydroxytryptamine) 5-HT2C receptor (Homo sapiens, UniProt P28335); experiment: Serotonin 5-HT2C radioligand binding ([3H]Mesulergine); details: read-out: Inhibition of ligand binding, Serotonin 5-HT2C (percent inhibition of specific binding); for inhibition at 0.1 µM: compound at 0.1 μM
T1 construct: expressed in transfected cells; host or cells: Chinese hamster ovary (CHO-K1) cells
T1 sequence (P28335 33-458): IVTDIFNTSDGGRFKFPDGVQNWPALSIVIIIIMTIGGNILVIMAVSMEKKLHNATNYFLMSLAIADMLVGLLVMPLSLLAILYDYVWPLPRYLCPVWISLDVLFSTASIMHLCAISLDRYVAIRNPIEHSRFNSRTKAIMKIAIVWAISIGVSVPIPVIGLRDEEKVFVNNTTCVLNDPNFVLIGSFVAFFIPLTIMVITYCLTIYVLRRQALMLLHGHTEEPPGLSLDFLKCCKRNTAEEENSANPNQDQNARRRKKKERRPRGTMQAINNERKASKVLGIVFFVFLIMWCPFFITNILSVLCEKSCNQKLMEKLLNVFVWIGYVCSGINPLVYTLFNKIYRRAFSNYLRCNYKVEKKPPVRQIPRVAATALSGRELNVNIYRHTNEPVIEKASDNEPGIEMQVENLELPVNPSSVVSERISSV
Experimental: Compounds of the invention were incubated with 1 nM [^3H]Mesulergine for 60 min. at 25° C. Non-specific binding was estimated in the presence of 1 μM Mianserin. Receptor proteins were filtered and washed, the filters were then counted to determine [^3H]Mesulergine specifically bound. Compounds were screened at 1 μM or lower, using 1% DMSO as vehicle. Biochemical assay results are presented as the percent inhibition of specific binding in Table 10.

[3] = target: T2, human recombinant serotonin (5-Hydroxytryptamine) 5-HT2A receptor (Homo sapiens, UniProt P28223); experiment: Serotonin 5-HT2A radioligand binding ([3H]Ketanserin); details: read-out: Inhibition of ligand binding, Serotonin 5-HT2A (percent inhibition of specific binding), compound at 0.1 μM
T2 construct: expressed in transfected cells; host or cells: Chinese hamster ovary (CHO-K1) cells
T2 sequence (P28223 whole entry): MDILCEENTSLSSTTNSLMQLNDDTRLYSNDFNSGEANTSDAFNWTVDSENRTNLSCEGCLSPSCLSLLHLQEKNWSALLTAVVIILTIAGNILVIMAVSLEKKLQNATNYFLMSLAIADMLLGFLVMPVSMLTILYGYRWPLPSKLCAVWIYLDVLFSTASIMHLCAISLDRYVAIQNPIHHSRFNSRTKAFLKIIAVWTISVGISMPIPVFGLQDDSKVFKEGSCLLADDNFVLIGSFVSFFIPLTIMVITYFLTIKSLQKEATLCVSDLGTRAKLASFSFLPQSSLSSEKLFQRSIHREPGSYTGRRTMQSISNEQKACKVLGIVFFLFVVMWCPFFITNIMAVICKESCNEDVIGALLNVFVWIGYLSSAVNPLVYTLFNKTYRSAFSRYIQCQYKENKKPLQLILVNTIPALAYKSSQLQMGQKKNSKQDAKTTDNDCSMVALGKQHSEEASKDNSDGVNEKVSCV
Experimental: Compounds of the invention were incubated with 0.5 nM [^3H]Ketanserin for 60 min. at 25° C. Non-specific binding was estimated in the presence of 1 μM Mianserin. Receptor proteins were filtered and washed, the filters were then counted to determine [^3H]Ketanserin specifically bound.

[4] = target: T3, human recombinant serotonin (5-Hydroxytryptamine) 5-HT6 receptor (Homo sapiens, UniProt P50406); experiment: Serotonin 5-HT6 radioligand binding ([3H]LSD); details: read-out: Inhibition of ligand binding, Serotonin 5-HT6 (percent inhibition of specific binding); for inhibition at 0.1 µM: compound at 0.1 μM
T3 construct: expressed in transfected cells; host or cells: human HeLa cells
T3 sequence (P50406 whole entry): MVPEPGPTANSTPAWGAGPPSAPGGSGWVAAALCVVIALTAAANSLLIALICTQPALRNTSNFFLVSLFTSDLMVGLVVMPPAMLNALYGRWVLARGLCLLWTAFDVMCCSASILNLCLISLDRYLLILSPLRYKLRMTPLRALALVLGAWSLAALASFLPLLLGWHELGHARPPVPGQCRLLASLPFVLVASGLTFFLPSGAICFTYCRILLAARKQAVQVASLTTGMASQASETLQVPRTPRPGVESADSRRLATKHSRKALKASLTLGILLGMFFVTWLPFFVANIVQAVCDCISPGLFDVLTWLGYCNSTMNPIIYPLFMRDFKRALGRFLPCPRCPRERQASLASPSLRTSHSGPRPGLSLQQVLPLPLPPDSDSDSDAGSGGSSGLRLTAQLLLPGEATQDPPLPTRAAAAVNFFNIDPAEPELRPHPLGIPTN
Experimental: Compounds of the invention were incubated with 1.5 nM [3H]Lysergic acid diethylamide (LSD) for 120 min. at 37° C. […] Receptor proteins were filtered and washed, the filters were then counted to determine [3H]LSD specifically bound. Compounds were screened at 1 μM or lower, using 1% DMSO as vehicle. Biochemical assay results are presented as the percent inhibition of specific binding in Table 10.

[5] = target: human dopamine D2L receptor (Homo sapiens, UniProt P14416); experiment: Dopamine D2L radioligand binding ([3H]Spiperone); details: compound at 1 μM
human dopamine D2L receptor, sequence (P14416 whole entry): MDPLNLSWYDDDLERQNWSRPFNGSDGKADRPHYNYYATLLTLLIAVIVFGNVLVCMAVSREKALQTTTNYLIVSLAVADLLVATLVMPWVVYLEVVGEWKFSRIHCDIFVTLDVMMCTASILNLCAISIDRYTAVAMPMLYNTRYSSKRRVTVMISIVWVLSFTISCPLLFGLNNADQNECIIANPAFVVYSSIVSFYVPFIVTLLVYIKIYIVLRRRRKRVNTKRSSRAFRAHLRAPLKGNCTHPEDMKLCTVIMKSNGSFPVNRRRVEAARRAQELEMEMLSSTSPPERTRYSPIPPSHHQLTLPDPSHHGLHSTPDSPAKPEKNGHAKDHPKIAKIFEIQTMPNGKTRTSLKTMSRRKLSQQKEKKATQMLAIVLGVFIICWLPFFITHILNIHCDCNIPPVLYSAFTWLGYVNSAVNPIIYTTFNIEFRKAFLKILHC
Text: Non-specific binding was estimated in the presence of […] Haloperidol. Receptor proteins were filtered and washed, the filters were then counted to determine [^3H]Spiperone specifically bound. […] Biochemical assay results are presented as the percent inhibition of specific binding in Table 9.

[6] = percent inhibition of specific binding, read-out: Inhibition of ligand binding, Dopamine D2L

Compound	Histamine Binding (1 μM) H1, percent inhibition of specific binding (histamine receptor H1; 1 μM) [%]	inhibition at 0.1 µM [1] [%]	inhibition at 0.1 µM [2] [%]	inhibition at 0.1 µM [3] [%]	inhibition at 0.1 µM [4] [%]	Inhibition of ligand binding, Dopamine D2L ([5]; percent inhibition of specific binding, 1 µM) [%]	inhibition at 1 µM (histamine receptor H1) [%]	inhibition at 1 µM [5, 6] [%]	inhibition at 1 µM ([2]; compound at 1 μM) [%]	inhibition at 1 µM ([4]; compound at 1 μM) [%]	inhibition at 1 µM ([5]; […] [3H]Spiperone, read-out: Inhibition of ligand binding, Dopamine D2L (percent inhibition of specific binding)) [%]
CC(=Cn1c2c(c3cc(Cl)ccc31)CN(C)CC2)c1ccc(F)cc1F (stereo in doubt) [Compound 107, 8-chloro-5-((Z)-2-(2,4-difluorophenyl)prop-1-enyl)-2,3,4,5-tetrahydro-2-methyl-1H-pyrido[4,3-b]indole]	88	95	95	96	97	72	–	–	–	–	–
COc1ccc([C@](C)(O)Cn2c3c(c4cc(C)ccc42)CN(C)CC3)cc1 [Compound 191, 1-(2,8-dimethyl-3,4-dihydro-1H-pyrido[4,3-b]indol-5(2H)-yl)-2-(4-methoxyphenyl)propan-2-ol]	–	69	94	98	45	–	23	15	–	–	–
COc1ccc([C@@](C)(O)Cn2c3c(c4cc(C)ccc42)CN(C)CC3)cc1 [Compound 192, 1-(2,8-dimethyl-3,4-dihydro-1H-pyrido[4,3-b]indol-5(2H)-yl)-2-(4-methoxyphenyl)propan-2-ol]	–	78	81	91	38	–	61	34	–	–	–
CC(C)C(O)(Cn1c2c(c3cc(Cl)ccc31)CN(C)CC2)c1ccncc1 (stereo not shown) [Compound 193, 1-(8-chloro-2-methyl-3,4-dihydro-1H-pyrido[4,3-b]indol-5(2H)-yl)-3-methyl-2-(pyridin-4-yl)butan-2-ol]	–	40	44	69	3	–	-7	14	–	–	–
Cc1ccc2c(c1)c1c(n2CC(O)(c2ccncc2)C(C)C)CCN(C)C1 (stereo not shown) [Compound 194, 1-(2,8-dimethyl-3,4-dihydro-1H-pyrido[4,3-b]indol-5(2H)-yl)-3-methyl-2-(pyridin-4-yl)butan-2-ol]	–	16	47	71	7	–	9	12	–	–	–
CCC(O)(Cn1c2c(c3cc(Cl)ccc31)CN(C)CC2)c1ccncc1 (stereo not shown) [Compound 195, 1-(8-chloro-2-methyl-3,4-dihydro-1H-pyrido[4,3-b]indol-5(2H)-yl)-2-(pyridin-4-yl)butan-2-ol]	–	18	43	62	32	–	20	17	–	–	–
CCC(O)(Cn1c2c(c3cc(C)ccc31)CN(C)CC2)c1ccncc1 (stereo not shown) [Compound 196, 1-(2,8-dimethyl-3,4-dihydro-1H-pyrido[4,3-b]indol-5(2H)-yl)-2-(pyridin-4-yl)butan-2-ol]	–	12	8	36	10	–	19	9	–	–	–
Cc1ccc2c(c1)c1c(n2CC(C)(O)c2ccncn2)CCN(C)C1 (stereo not shown) [Compound 197, 1-(2,8-dimethyl-3,4-dihydro-1H-pyrido[4,3-b]indol-5(2H)-yl)-2-(pyrimidin-4-yl)propan-2-ol]	–	10	16	17	4	–	61	14	–	–	–
C/C(=C\n1c2c(c3cc(Cl)ccc31)CN(CCC(C)(C)O)CC2)c1ccncc1 [compound 404, (E)-4-(8-chloro-5-(2-(pyridin-4-yl)prop-1-enyl)-3,4-dihydro-1H-pyrido[4,3-b]indol-2(5H)-yl)-2-methylbutan-2-ol]	–	–	–	–	–	–	37	–	90	95	92
